Data as given in patent publication US6916925B1, “Dye labeled imidazoquinoline compounds” (3M Innovative Properties Co., priority 1999, dated 2005).

Assays:
[1] = tested on: Peripheral blood mononuclear cells (PBMCs); experiment: Cytokine Induction in Human Cells, Test Method 1 (IFN by A549/encephalomyocarditis bioassay, TNF by ELISA); assay type: cell-based; settings: 24 hours
From the text: An in vitro human blood cell system is used to assess cytokine induction by compounds of the invention. Activity is based on the measurement of interferon and tumor necrosis factor (α) (IFN and TNF, respectively) secreted into culture media as described by Testerman et. al. in “Cytokine Induction by the Immunomodulators Imiquimod and S27609”, Journal of Leukocyte Biology, 58, 365-372 (September, 1995).
Whole blood from healthy human donors is collected by venipuncture into EDTA vacutainer tubes. Peripheral blood mononuclear cells (PBMCs) are separated from whole blood by Histopaque®-1077 (Sigma Chemicals, St. Louis, Mo.) density gradient centrifugation. The PBMCs are washed twice with Hank's Balanced Salts Solution (Sigma) and are then suspended at 2×10^6 cells/mL in RPMI 1640 medium containing 10% fetal bovine serum, 2 mM L-glutamine and 1% penicillin/streptomycin solution (RPMI complete). 1 mL portions of PBMC suspension are added to 12 or 24 well flat bottom sterile tissue culture plates.
The compounds are solubilized in ethanol, dimethyl sulfoxide or pyrogen free water then diluted with tissue culture water, 0.01N sodium hydroxide or 0.01N hydrochloric acid (The choice of solvent will depend on the chemical characteristics of the compound being tested.). Ethanol or DMSO concentration should not exceed a final concentration of 1% for addition to the culture wells. The compounds are generally tested using a concentration range from about 0.01 μg/mL to about 50 μg/mL.
The solution of test compound is added to the wells containing 1 ml of PBMCs in media. The plates are covered with plastic lids, mixed gently and then incubated for 24 hours at 37° C. with a 5% carbon dioxide atmosphere.
Following incubation the cell-free culture supernatant is removed with a sterile polypropylene pipet and transferred to a 12×75 mm polypropylene tube. The tubes are then centrifuged at 1000 rpm ([…]) for 10 to 15 minutes at 4° C. The supernatant is removed and placed into 2 mL sterile freezing vials. Samples are maintained at −70° C. until analyzed for cytokines.
Interferon concentrations are determined by bioassay using A549 human lung carcinoma cells challenged with encephalomyocarditis. The details of the bioassay method have been described by G. L. Brennan and L. H. Kronenberg in “Automated Bioassay of Interferons in Micro-test Plates”, Biotechniques, June/July, 78, 1983, incorporated herein by reference. Briefly stated the method is as follows: A549 cells are incubated with dilutions of IFN standard or test samples at 37° C. for 24 hours. The incubated cells are then infected with an inoculum of encephalomyocarditis virus. The infected cells are incubated for an additional 24 hours at 37° C. before quantifying for viral cytopathic effect. The viral cytopathic effect is quantified by staining of the wells with a vital dye such as crystal violet followed by visual scoring of the plates. Results are expressed as alpha reference units/mL based on the value obtained for an NIH Human Leukocyte IFN standard.
Tumor necrosis factor (α) (TNF) concentration is determined using an ELISA kit available from Genzyrne, Cambridge, Mass. The results are expressed as pg/ml.
The labeled compound of Example 1 and the unlabeled intermediate (2-(4-amino-2-ethoxymethyl-1H-imidazo[4,5-c]quinolin-1-yl)ethaneamine trihydrochloride) were tested side by side for their ability to induce cytokine biosynthesis using Test Method 1 described above. The compound of Example 1 was solubilized in ethanol. The unlabeled intermediate was solubilized in tissue culture water.

[2] = tested on: human peripheral blood mononuclear cells; experiment: Flow Cytometry Analysis: binding to mononuclear cells by fluorescence; assay type: cell-based; settings: for binding to human peripheral blood mononuclear cells (fluorescence intensity histogram): FACScan flow cytometer
Method: Whole blood was collected by venipuncture into EDTA vacutainer tubes from healthy human donors. PBMCs were separated from whole blood by ficoll hypaque (Sigma Chemicals, St. Louis, Mo.) density gradient centrifugation as described in Testerman. The PBMCs were suspended at 2×10^6 cells/mL in RPMI 1640 medium containing 10% fetal bovine serum, 2 mM L-glutamine and penicillin/streptomycin solution (RPMI complete). […] Following incubation the cells were washed two times with staining buffer (Dulbecco's Phosphate Buffered Saline without calcium and magnesium, 1% heat inactivated fetal bovine serum, and 0.1% sodium azide). The cells were suspended in staining buffer and transferred to 12×75 mm polystyrene tubes for analysis by flow cytometry. Binding to mononuclear cells was determined by fluorescence using a FACScan flow cytometer (purchased from Becton Dickinson).
The histograms of FIGS. 1 and 2 plot the fluorescence intensity with the more highly fluorescent cell populations being seen further to the right. The peak area labeled as M3 in the histograms indicates the fluorescence binding to the monocyte population in the peripheral blood mononuclear cells.

[3] = tested on: Peripheral blood mononuclear cells (PBMCs); experiment: Cytokine Induction in Human Cells, Test Method 2 (IFN-α and TNF-α by ELISA); assay type: cell-based; set-up: key: +: indicates that the compound induced the indicated cytokine at that particular concentration; −: indicates that the compound did not induce the indicated cytokine at that particular concentration; settings: 18 to 24 hours
From the text: An in vitro human blood cell system is used to assess cytokine induction. Activity is based on the measurement of interferon and tumor necrosis factor (α) (IFN and TNF, respectively) secreted into culture media as described by Testerman et. al. In “Cytokine Induction by the Immunomodulators Imiquimod and S-27609”, Journal of Leukocyte Biology, 58, 365-372 (September, 1995).
Whole blood from healthy human donors is collected by venipuncture into EDTA vacutainer tubes. Peripheral blood mononuclear cells (PBMCs) are separated from whole blood by density gradient centrifugation using Histopaque®-1077. The PBMCs are washed twice with -Hank's Balanced Salts Solution and then are suspended at 3-4×10^6 cells/mL in RPMI complete. The PBMC suspension is added to 48 well flat bottom sterile tissue culture plates (Costar, Cambridge, Mass. or Becton Dickinson Labware, Lincoln Park, N.J.) containing an equal volume of RPMI complete media containing test compound.
The compounds are solubilized in dimethyl sulfoxide (DMSO). The DMSO concentration should not exceed a final concentration of 1% for addition to the culture wells. The compounds are generally tested at concentrations ranging from 0.12 to 30 μM.
The solution of test compound is added at 60 μM to the first well containing RPMI complete and serial 3 fold dilutions are made in the wells. The PBMC suspension is then added to the wells in an equal volume, bringing the test compound concentrations to the desired range (0.12 to 30 μM). The final concentration of PBMC suspension is 1.5-2×10^6 cells/mL. The plates are covered with sterile plastic lids, mixed gently and then incubated for 18 to 24 hours at 37° C. in a 5% carbon dioxide atmosphere.
Following incubation the plates are centrifuged for 5-10 minutes at 1000 rpm (˜200×g) at 4° C. The cell-free culture supernatant is removed with a sterile polypropylene pipet and transferred to sterile polypropylene tubes. Samples are maintained at −30 to −70° C. until analysis. The samples are analyzed for interferon (α) and for tumor necrosis factor (α) by ELISA
Interferon (α) concentration is determined by ELISA using a Human Multi-Species kit from PBL Biomedical Laboratories, New Brunswick, N.J. Results are expressed in pg/mL.
Tumor necrosis factor (α) (TNF)concentration is determined using ELISA kits available from Genzyme, Cambridge, Mass.; R&D Systems, Minneapolis, Minn.; or Phanningen, San Diego, Calif. Results are expressed in pg/mL.
The labeled compounds of Examples 2 and 3 were tested for their ability to induce cytokine biosynthesis using Test Method 2 described above.

| melting point [°C] | SMILES | IFN ([1]; concentration 0.1 μg/ml) [U/ml] | TNF ([1]; concentration 0.1 μg/ml) [pg/mL] | IFN ([1]; concentration 0.3 μg/ml) [U/ml] | TNF ([1]; concentration 0.3 μg/ml) [pg/mL] | IFN ([1]; concentration 1 μg/ml) [U/ml] | TNF ([1]; concentration 1 μg/ml) [pg/mL] | IFN ([1]; concentration 3 μg/ml) [U/ml] | TNF ([1]; concentration 3 μg/ml) [pg/mL] | binding to human peripheral blood mononuclear cells (fluorescence intensity histogram) ([2]; incubated 1 hour at 37° C.) | IFN induction ([3]; concentration 0.014 μg/ml) | TNF induction ([3]; concentration 0.014 μg/ml) | IFN induction ([3]; concentration 0.041 μg/ml) | TNF induction ([3]; concentration 0.041 μg/ml) | IFN induction ([3]; concentration 0.12 μg/ml) | TNF induction ([3]; concentration 0.12 μg/ml) | IFN induction ([3]; concentration 0.37 μg/ml) | TNF induction ([3]; concentration 0.37 μg/ml) | IFN induction ([3]; concentration 1.11 μg/ml) | TNF induction ([3]; concentration 1.11 μg/ml) | other results |
| --- | --- | --- | --- | --- | --- | --- | --- | --- | --- | --- | --- | --- | --- | --- | --- | --- | --- | --- | --- | --- | --- |
|  | CCOCc1nc2c(N)nc3ccccc3c2n1CCNC(=O)CCCCCNC(=O)CCc1ccc2n1[B-](F)(F)[N+]1=C(C)C=C(C)C1=C2 [Example 1, N-[2-(4-Amino-2-ethoxymethyl-1H-imidazo[4,5-c]quinolin-1-yl)ethyl]-6-[(4,4-difluoro-5,7-dimethyl-4-bora-3a,4a-diaza-s-indacene-3-propionyl)amino]hexanoamide] | 554 | 46 | 2878 | 73 | 421 | 369 | 62 | 869 | binds to human peripheral blood mononuclear cells |  |  |  |  |  |  |  |  |  |  | IFN ([1]; concentration 0.01 μg/ml): 16 U/ml; TNF ([1]; concentration 0.01 μg/ml): 0 pg/mL; IFN ([1]; concentration 0.03 μg/ml): 47 U/ml; TNF ([1]; concentration 0.03 μg/ml): 42 pg/mL; binding to monocytes compared with other PBMCs ([2]; incubated 1 hour at 37° C., peak area M3 = monocyte population): monocytes bind more effectively than other PBMCs; binding to monocytes ([2]; incubated with human PBMCs at 4° C. for 1 hour): did not show significant binding |
| > 245 | COCCc1nc2c(N)nc3ccccc3c2n1CCCCNC(=S)Nc1ccc(-c2c3ccc(=O)cc-3oc3cc(O)ccc23)c(C(=O)O)c1 [Example 2] |  |  |  |  |  |  |  |  |  | − | − | − | − | − | − | − | − | − | − | IFN induction ([3]; concentration 3.33 μg/ml): −; TNF induction ([3]; concentration 3.33 μg/ml): +; IFN induction ([3]; concentration 10 μg/ml): +; TNF induction ([3]; concentration 10 μg/ml): +; IFN induction ([3]; concentration 30 μg/ml): +; TNF induction ([3]; concentration 30 μg/ml): + |
| > 245 | CCCCc1nc2c(N)nc3ccccc3c2n1CCNC(=S)Nc1ccc(-c2c3ccc(=O)cc-3oc3cc(O)ccc23)c(C(=O)O)c1 [Example 3, 5-{[({2-[4-Amino-2-butyl-1H-imidazo[4,5-c]quinolin-1-yl]ethyl}amino)carbonthioyl]amino}-2-(6-hydroxy-3-oxo-3H-xanthen-9-yl)benzoic Acid] |  |  |  |  |  |  |  |  |  | − | − | − | − | − | − | − | − | − | − | IFN induction ([3]; concentration 3.33 μg/ml): −; TNF induction ([3]; concentration 3.33 μg/ml): −; IFN induction ([3]; concentration 10 μg/ml): +; TNF induction ([3]; concentration 10 μg/ml): −; IFN induction ([3]; concentration 30 μg/ml): +; TNF induction ([3]; concentration 30 μg/ml): + |
|  | CCOCc1nc2c(N)nc3ccccc3c2n1CCN.Cl.Cl.Cl [Unlabeled Intermediate, 2-(4-amino-2-ethoxymethyl-1H-imidazo[4,5-c]quinolin-1-yl)ethaneamine trihydrochloride] | 421 | 0 | 2878 | 0 | 2878 | 49 | 81 | 538 |  |  |  |  |  |  |  |  |  |  |  | IFN ([1]; concentration 10 μg/ml): 140 U/ml; TNF ([1]; concentration 10 μg/ml): 2640 pg/mL |
|  | Cc1cc(C)n2c1C=C1C=CC(CCC(=O)NCCCCCC(=O)ON3C(=O)CCC3=O)=[N+]1[B-]2(F)F [BODIPY fluorophore, 6-((4,4-difluoro-5,7-dimethyl4-bora-3a,4a-diaza-s-indacene-3-propionyl)amino)hexanoic acid, succinimidyl ester, reference compound] |  |  |  |  |  |  |  |  | does not |  |  |  |  |  |  |  |  |  |  |  |
